Where “and” joins values, the source holds several entries; their conditions need not be identical. Equal entries are not always repeated. Where two headings read alike, the source gives them in different places.

The values that follow come from patent US10702603B2 (priority 2012, dated 2020).

For data set [1] the following is noted: cited from earlier work.
For data set [2], the system named is Xenotropic Murine Leukemia Virus (XMuLV). The class given is cell-based.
The subject of a further data set is XMuLV. In words: Viral inactivation study with TRITON X-100 using 3 different antibodies.

As for `C[C@H](CCC(=O)NCCC[N+](C)(C)CCCS(=O)(=O)[O-])[C@H]1CC[C@H]2[C@@H]3[C@H](O)C[C@@H]4C[C@H](O)CC[C@]4(C)[C@H]3C[C@H](O)[C@]12C` [CHAPS, 3-[(3-cholamidopropyl)dimethylammonio]-1-propanesulfonate], the CMC in data set [1] ([…]) was 6 to 10 mM. Take `C[C@H](CCC(=O)NCCC[N+](C)(C)CC(O)CS(=O)(=O)[O-])[C@H]1CC[C@H]2[C@@H]3[C@H](O)C[C@@H]4C[C@H](O)CC[C@]4(C)[C@H]3C[C@H](O)[C@]12C` (stereo partly shown) [CHAPSO, 3-([3-Cholamidopropyl]dimethylammonio)-2-hydroxy-1-propanesulfonate]: the CMC in data set [1] ([…]) was 8 mM. Turning to `CCCCCCCCCCCC[N+](C)(C)CCCCCCCCCCC(=O)[O-]` [DDMAU, N-Dodecyl-N,N-(dimethylammonio)undecanoate], the CMC in data set [1] ([…]) was 0.13 mM. Regarding `CCCCCCCCCCCC[N+](C)(C)CC(=O)[O-]` [EMPIGEN BB, N,N-Dimethyl-N-dodecylglycine betaine], in data set [1] ([…]), the CMC is 1.6 to 2.1 mM. For `CCCCCCCCCCCC[N+](C)(C)[O-]` [LDAO, N,N-dimethyldodecylamine N-oxide], the CMC in data set [1] ([…]) is 1 to 2 mM. In data set [2], the “Log Reduction Factor (120 min)” value is given as 4; the “Log Reduction Factor (LRF)” value is 3.14 and 3.07 and 3.08. For the molecule `CCCCCCCCCCCC[N+](C)(C)CCCS(=O)(=O)[O-]` [Sulfobetaine-12, N-dodecyl-N,N-dimethyl-3-ammonio-1-propanesulfonate], in data set [2], the “Log Reduction Factor (120 min)” value was 4.2. Consider `CCCCCCCCCCCCCC[N+](C)(C)CCCS(=O)(=O)[O-]` [Sulfobetaine-14, N-tetradecyl-N,N-dimethyl-3-ammonio-1-propanesulfonate], for which, in data set [2], the “Log Reduction Factor (120 min)” value stood at 4.7. Consider `CCCCCCCCCCCCCCCC[N+](C)(C)CCCS(=O)(=O)[O-]` [Sulfobetaine-16, N-hexadecyl-N,N-dimethyl-3-ammonio-1-propanesulfonate], for which, in data set [2], the “Log Reduction Factor (120 min)” value is given as 4.2; the “Log Reduction Factor (LRF)” value is 3.16 and 3.15 and 3.14. In the case of `CCCCCCCC[N+](C)(C)CCCS(=O)(=O)[O-]` [ZWITTERGENT 3-08, n-Octyl-N,N-dimethyl-3-ammonio-1-propanesulfonate], the CMC in data set [1] ([…]) is listed as 330 mM.

As for `CCCCCCCCCC[N+](C)(C)CCCS(=O)(=O)[O-]` [ZWITTERGENT 3-10, n-Decyl-N,N-dimethyl-3-ammonio-1-propanesulfonate], the CMC in data set [1] ([…]) is 25 to 40 mM. Turning to TRITON X-100, in data set [1] (at 25° C. in water), the CMC is given as 0.01-0.02 % w/w. Also, the viral inactivation entry in the data set on XMuLV (0.25-0.5× CMC (0.006% w/w), below the CMC) is reported as “No viral inactivation”. The same molecule returned an XMuLV inactivation in the data set with XMuLV (1-2× CMC (0.02% w/w), ambient temperature, within 45 min) of more than 4 log.
